Reference: patent US20090076130A1, “COMPOUNDS FOR THE INHIBITION OF HISTONE DEACETYLASE” (NATUREWISE BIOTECH & MEDICALS CORPORATION, priority 2007, published 2009)

How the values were obtained:
SMN2 protein = settings: fibroblast cells derived from SMA patients, 64 hours of treatment; cited from earlier work
[1] = system: human breast MCF-7 cancer cells; assay: Growth and morphology of breast cancer MCF-7 cells; type: cell-based
Protocol: The breast cancer MCF-7 cells, were cultured in Dulbecco's modified Eagle's medium (DMEM; Gibco) supplemented with penicillin G, streptomycin sulphate, 0.5 mM of L-glutamine and 10% fetal bovine serum (FBS; Gibco) at 37° C., 5% CO2 and 95% relative humidity. The cells were seeded at a density of 3×10^5 per well of 6-well plates. After 24 hours, the cells were treated with different concentrations of compound NBM-HD-1 and 4 mM sodium butyrate being used as the positive control. The cells were observed after 48 hours and counted after 96 hours. […] In FIG. 8(A), after the cells were incubated with 2.5 μg/mL (FIG. 8(A)-b), 5 μg/mL (FIG. 8(A)-c) and 10 μg/mL (FIG. 8(A)-d) of NBM-HD-1 for 48 hours, the density of MCF-7 cells reduced dramatically in comparison with that of the control group (FIG. 8(A)-a). The morphology of the MCF-7 cells in the experimental group changed in comparison with that in the control group. […] The results of the cell counting (FIG. 8(B)) indicate that, similar to sodium butyrate, NBM-HD-1 inhibits cell growth.
MCF-7 cancer cells were seeded at a density of 3×10^5 per well in 6-well plates. After 24 hours, the cells were treated with different concentrations of compound NBM-HD-2 and 4 mM sodium butyrate being used as the positive control. The cells were observed and counted after 72 hours. […] In FIG. 13(A), after the cells were incubated with 2.5 μg/mL (FIG. 13(A)-c), 5 μg/mL (FIG. 13(A)-d), 7.5 μg/mL (FIG. 13(A)-e) and 10 μg/mL (FIG. 13(A)-f) of NBM-HD-2 for 72 hours, the density of MCF-7 cells reduced dramatically in comparison with that of the control group (FIG. 13(A)-a). The morphology of the MCF-7 cells in the experimental group changed in comparison with that in the control group.
MCF-7 cancer cells were seeded at a density of 3×10^5 per well of 6-well plates. After 24 hours, the cells were treated with different concentrations of compound NBM-HD-3 and 4 mM sodium butyrate, which was being used as the positive control. The cells were observed and counted after 72 hours. […] In FIG. 14(A), after the cells were incubated with 2.5 μg/mL (FIG. 14(A)-c), 5 μg/mL (FIG. 14(A)-d), 7.5 μg/mL (FIG. 14(A)-e) and 10 μg/mL (FIG. 14(A)-f) of NBM-HD-3 for 72 hours, the density of MCF-7 cells reduced dramatically in comparison with that of the control group (FIG. 14(A)-a). The morphology of the MCF-7 cells in the experimental group changed in comparison with that in the control group. […] The results of the cell counting (FIG. 14(B)) indicate that, similar to sodium butyrate, NBM-HD-3 inhibits cell growth.

cyclin D1 = settings: MCF-7 breast cancer cells; cited from earlier work
acetylated histone H4 = assay: Western blotting of hyperacetylated histone H4 in C6 glioma cells; type: cell-based, rat
Protocol: Accumulation of hyperacetylated histone H4 was analyzed in the cell lysates by using Western Blotting and the antibody directed against acetylated histone H4 (Upstate). The C6 glioma cells were seeded at a density of 1×10^6 per 10 cm culture dish. After 24 hours, the cells were treated with 10 μg/mL of NBM-HD-1 or 4 mM sodium butyrate for several hours. The whole-cell lysates were prepared by using denaturing SDS sample buffer and then separated on 15% SDS-polyacrylamide gels. […] The amount of acetylated histones was hardly detectable in untreated C6 glioma cells. The amount of acetylated histone H4 of the cells treated with 4 mM sodium butyrate for 2 hours increased. Sodium butyrate was then removed from the culture medium. After 6 hours, the amount of acetylated histone H4 decreased. The accumulation of acetylated histone H4 increased in the cells treated with NBM-HD-1 for 2 hours. […] The highest histone acetylation appeared at 6 hours after the compound had been removed. […] Because NBM-HD-1 is more hydrophobic than sodium butyrate, NBM-HD-1 can be retained in the cells longer than sodium butyrate and continuously induce the acetylation of histone H4.

[2] = system: transgenic mouse model of spinal and bulbar muscular atrophy; settings: cited from earlier work
[3] = system: human giloblastoma DBTRG-05MG cancer cells; assay: Growth and morphology of human giloblastoma DBTRG-05MG cancer cells; type: cell-based; settings: NBM-HD-1 2.5, 5, 10 μg/mL or 4 mM sodium butyrate, 72 hours
Protocol: The human giloblastoma DBTRG-05MG cancer cells were cultured in RPMI medium 1640 (Gibco) supplemented with penicillin G, streptomycin sulphate, 0.5 mM of L-glutamine and 10% fetal bovine serum (FBS; Gibco), 100 mh/L sodium pyruvate (Gibco), and 1% NEAA (Gibco) at 37° C., 5% CO2 and 95% relative humidity. For these experiments, the cells were seeded at a density of 3×10^5 per well of 6-well plates. After 24 hours, the cells were treated with different concentrations of NBM-HD-1 and 4 mM sodium butyrate. The cells were observed and counted after 72 hours. […] In 05MG cells (FIG. 7(A)), after incubation with 2.5 μg/mL (FIG. 7(A)-b), 5 μg/mL (FIG. 7(A)-c) and 10 μg/mL (FIG. 7(A)-d) of NBM-HD-1 for 72 hours, the density of the cells reduced dramatically in comparison with that of the control group (FIG. 7(A)-a). The 05MG cells in the experimental group also changed to become longer than those in the control group.

[4] = compound 2.5, 5, 7.5, 10 μg/mL or 4 mM sodium butyrate, 72 hours

CN(C)c1ccc(C(=O)NCCCCCCC(=O)NO)cc1 [M344]
up-regulation of SMN2 protein expression (SMN2 protein): up to 7 fold

COc1cc2c(c(O)c1CCC(C)(C)O)C(=O)C[C@@H](c1ccc(OC)c(OC)c1C/C=C(\C)CCCC(C)(C)O)O2 [NBM-HD-3]
morphology of MCF-7 cancer cells ([1]; 2.5, 5, 7.5, 10 μg/mL, 72 hours): change their morphology | growth of MCF-7 cancer cells [1, 4]: can inhibit the growth of MCF-7 cancer cells in a dose-dependent manner

CC(/C=C/C(=O)NO)=C\[C@@H](C)C(=O)c1ccc(N(C)C)cc1 [Trichostatin A]
cyclin D1 degradation (cyclin D1): induce ubiquitin-dependent cyclin D1 degradation

CCCC(=O)[O-].[Na+] [sodium butyrate, reference compound]
accumulation of hyperacetylated histone H4 (acetylated histone H4; 10 μg/mL NBM-HD-1 or 4 mM sodium butyrate, 2 hours): can increase the accumulation of hyperacetylated histone H4 | amount of acetylated histone H4 after removal of the compound (acetylated histone H4; after 2 hours treatment and removal from the culture medium, up to 6 hours): decreased | phenotypic expression [2]: ameliorates phenotypic expression | growth of MCF-7 cancer cells ([1]; NBM-HD-1 2.5, 5, 10 μg/mL or 4 mM sodium butyrate, observed after 48 hours, counted after 96 hours): able to inhibit the growth of MCF-7 cells | growth of MCF-7 cancer cells [1, 4]: able to inhibit the growth of MCF-7 cells | growth of 05MG cancer cells [3]: could inhibit the proliferation of 05MG cancer cells
